# Data taken from patent publication US20140256756A1, “PIPERIDINYL-SUBSTITUTED LACTAMS AS GPR119 MODULATORS” (Array BioPharma Inc., priority 2011, published 2014).
# Structures can show the parent of a compound that is named as a salt.
# Tested on: modified version of the GPR119 receptor (94% identity to human receptor)
# Test: cAMP production assay (LANCE cAMP kit, TR-FRET) in HEK-293 cells
# Assay type: cell-based
# Conditions: for cAMP production in HEK-293 cells: HEK-293 cells stably expressing modified GPR119, test compounds 0.2 nM to 10 μM, one-hour incubation; for Fold over baseline: increase in cAMP relative to basal levels, agonist activity if 1.5-fold or greater
# Protocol: The assay utilized HEK-293 cells that stably express a modified version of the GPR119 receptor (94% identity to human receptor), under the control of a CMV promoter containing a tet-on element for tetracycline-inducible expression. GPR119 agonist-induced cyclic AMP (cAMP) production was measured in this cell line using the LANCE cAMP kit (Perkin Elmer, Waltham, Mass.). To generate a working stock of cells for the assay, cells were treated overnight with 1 μg/mL doxycycline at 37° C. in the presence of 5% CO2 to induce receptor expression. Cells were then harvested by enzymatic dissociation with 0.05% trypsin, resuspended in freezing medium (DMEM growth medium with 10% each of fetal bovine serum and DMSO), aliquoted and frozen at −80° C. On the day of the assay, frozen cells were thawed, washed 1× in PBS and resuspended in Hank's buffered salt solution (HBSS) containing 5 mM HEPES, 0.1% BSA and Alexa Fluor 647-conjugated anti-cAMP antibody (diluted 1:100). The cell suspension was then transferred to a Proxiplate Plus white 384-well assay plate (Perkin-Elmer) at 2000 cells/well. Test compounds at final concentrations ranging from 0.2 nM to 10 μM were added to the assay plate, followed by a one-hour incubation at ambient temperature (volume=10 μL/well). DMSO concentration was held constant at 0.5%. After incubation with test compounds, 10 μL, of a detergent buffer containing a biotinylated cAMP/Europium-conjugated streptavidin complex (Europium-labeled cAMP tracer) were added to each well on the assay plate, followed by a 2-hour incubation at ambient temperature. During this incubation cAMP released from lysed cells competes with the Europium-labeled cAMP tracer for binding to the Alexa Fluor 647-conjugated antibody. […] Cellular cAMP levels were then determined by interpolation of raw signal data using a cAMP standard curve. Compounds were determined to have agonist activity if they stimulated a 1.5-fold or greater increase in cAMP relative to basal levels.
Compound,cAMP production in HEK-293 cells [nmol],Fold over baseline
"CC(C)c1nsc(N2CCC(N3CCC(Oc4ccc(S(=O)(=O)CC5CC5)cc4F)C3=O)CC2)n1 (stereo not drawn) [Example 44, 3-(4-(Cyclopropylmethylsulfonyl)-2-fluorophenoxy)-1-(1-(3-isopropyl-1,2,4-thiadiazol-5-yl)piperidin-4-yl)pyrrolidin-2-one trifluoroacetate]",23.8,3.4
"CC(C)c1nsc(N2CCC(N3CCC(Oc4ccc(S(=O)(=O)C(C)C)cc4F)C3=O)CC2)n1 (stereo not drawn) [Example 45, 3-(2-fluoro-4-(isopropylsulfonyl)phenoxy)-1-(1-(3-isopropyl-1,2,4-thiadiazol-5-yl)piperidin-4-yl)pyrrolidin-2-one]",17.8,3.5
"CC(C)c1nsc(N2CCC(N3CCC(Oc4ccc(S(=O)(=O)C5CC5)cc4F)C3=O)CC2)n1 (stereo not drawn) [Example 46, 3-(4-(Cyclopropylsulfonyl)-2-fluorophenoxy)-1-(1-(3-isopropyl-1,2,4-thiadiazol-5-yl)piperidin-4-yl)pyrrolidin-2-one trifluoroacetate]",20.7,4.7
"CS(=O)(=O)c1cc(F)c(OC2CCN(C3CCN(c4nc(C5CC5)ns4)CC3)C2=O)cc1F.O=C(O)C(F)(F)F (stereo not drawn) [Example 47, 1-(1-(3-Cyclopropyl-1,2,4-thiadiazol-5-yl)piperidin-4-yl)-3-(2,5-difluoro-4-(methylsulfonyl)phenoxy)pyrrolidin-2-one trifluoroacetate]",9.8,2.7
"CS(=O)(=O)c1cc(F)c(OC2CCN(C3CCN(c4nc(-c5ccccc5)ns4)CC3)C2=O)cc1F (stereo not drawn) [Example 48, 3-(2,5-difluoro-4-(methylsulfonyl)phenoxy)-1-(1-(3-phenyl-1,2,4-thiadiazol-5-yl)piperidin-4-yl)pyrrolidin-2-one trifluoroacetate]",20.5,3.3
"CC(C)Cc1nsc(N2CCC(N3CCC(Oc4cc(F)c(S(C)(=O)=O)cc4F)C3=O)CC2)n1 (stereo not drawn) [Example 49, 3-(2,5-difluoro-4-(methylsulfonyl)phenoxy)-1-(1-(3-isobutyl-1,2,4-thiadiazol-5-yl)piperidin-4-yl)pyrrolidin-2-one trifluoroacetate]",15.4,2.8
"CC(C)c1nsc(N2CCC(N3CC[C@H](Oc4ccc(S(C)(=O)=O)cc4F)C3=O)CC2)n1 [Example 50, (S)-3-(2-fluoro-4-(methylsulfonyl)phenoxy)-1-(1-(3-isopropyl-1,2,4-thiadiazol-5-yl)piperidin-4-yl)pyrrolidin-2-one]",15.1,5.6
"CC(C)c1nsc(N2CCC(N3CC[C@@H](Oc4ccc(S(C)(=O)=O)cc4F)C3=O)CC2)n1 [Example 51, (R)-3-(2-fluoro-4-(methylsulfonyl)phenoxy)-1-(1-(3-isopropyl-1,2,4-thiadiazol-5-yl)piperidin-4-yl)pyrrolidin-2-one]",33.3,5.9
"CC(C)c1nsc(N2CCC(N3CC[C@H](Oc4cc(F)c(S(C)(=O)=O)cc4F)C3=O)CC2)n1 [Example 52, (S)-3-(2,5-difluoro-4-(methylsulfonyl)phenoxy)-1-(1-(3-isopropyl-1,2,4-thiadiazol-5-yl)piperidin-4-yl)pyrrolidin-2-one]",24.6,3.9
"CC(C)c1nsc(N2CCC(N3CC[C@H](Oc4ccc(S(C)(=O)=O)c(F)c4)C3=O)CC2)n1 [Example 53, (S)-3-(3-fluoro-4-(methylsulfonyl)phenoxy)-1-(1-(3-isopropyl-1,2,4-thiadiazol-5-yl)piperidin-4-yl)pyrrolidin-2-one]",24.5,4.9
"CC(C)c1nsc(N2CCC(N3CC[C@H](Oc4ccc(S(C)(=O)=O)c(Cl)c4)C3=O)CC2)n1 [Example 54, (S)-3-(3-chloro-4-(methylsulfonyl)phenoxy)-1-(1-(3-isopropyl-1,2,4-thiadiazol-5-yl)piperidin-4-yl)pyrrolidin-2-one]",17.2,3.6
"CN(C)c1nsc(N2CCC(N3CC[C@H](Oc4cc(F)c(S(C)(=O)=O)cc4F)C3=O)CC2)n1 [Example 55, (S)-3-(2,5-difluoro-4-(methylsulfonyl)phenoxy)-1-(1-(3-(dimethylamino)-1,2,4-thiadiazol-5-yl)piperidin-4-yl)pyrrolidin-2-one]",17.2,3.8
"CC(C)Cc1nsc(N2CCC(N3CC[C@H](Oc4ccc(S(C)(=O)=O)cc4F)C3=O)CC2)n1 [Example 56, (S)-3-(2-fluoro-4-(methylsulfonyl)phenoxy)-1-(1-(3-isobutyl-1,2,4-thiadiazol-5-yl)piperidin-4-yl)pyrrolidin-2-one]",17.4,3.4
"Cc1cc(O[C@H]2CCN(C3CCN(c4nc(C(C)C)ns4)CC3)C2=O)c(F)cc1Br [Example 57, (S)-3-(4-bromo-2-fluoro-5-methylphenoxy)-1-(1-(3-isopropyl-1,2,4-thiadiazol-5-yl)piperidin-4-yl)pyrrolidin-2-one]",22.0,2.8
"Cc1cc(O[C@H]2CCN(C3CCN(c4nc(C(C)C)ns4)CC3)C2=O)c(F)cc1S(C)(=O)=O [Example 58, (S)-3-(2-fluoro-5-methyl-4-(methylsulfonyl)phenoxy)-1-(1-(3-isopropyl-1,2,4-thiadiazol-5-yl)piperidin-4-yl)pyrrolidin-2-one]",48.4,4.9
"CS(=O)(=O)c1ccc(O[C@H]2CCN(C3CCN(c4nc(C5CCOCC5)ns4)CC3)C2=O)c(F)c1 [Example 59, (S)-3-(2-fluoro-4-(methylsulfonyl)phenoxy)-1-(1-(3-(tetrahydro-2H-pyran-4-yl)-1,2,4-thiadiazol-5-yl)piperidin-4-yl)pyrrolidin-2-one]",28.3,4.2
"CC1(c2nsc(N3CCC(N4CC[C@H](Oc5ccc(S(C)(=O)=O)cc5F)C4=O)CC3)n2)CCOCC1 [Example 60, (S)-3-(2-fluoro-4-(methylsulfonyl)phenoxy)-1-(1-(3-(4-methyltetrahydro-2H-pyran-4-yl)-1,2,4-thiadiazol-5-yl)piperidin-4-yl)pyrrolidin-2-one]",13.2,4.5
"CCS(=O)(=O)c1ccc(OC2CCN(C3CCN(c4nc(C(C)C)ns4)CC3)C2=O)c(F)c1 (stereo not drawn) [Example 61, 3-(4-(ethylsulfonyl)-2-fluorophenoxy)-1-(1-(3-isopropyl-1,2,4-thiadiazol-5-yl)piperidin-4-yl)pyrrolidin-2-one]",23.5,3.5
"CC(C)c1nsc(N2CCC(N3CCC(Oc4ccc(S(=O)(=O)c5ccccc5)cc4F)C3=O)CC2)n1 (stereo not drawn) [Example 62, 3-(2-Fluoro-4-(phenylsulfonyl)phenoxy)-1-(1-(3-isopropyl-1,2,4-thiadiazol-5-yl)piperidin-4-yl)pyrrolidin-2-one]",17.4,2.7
"CC(C)c1nsc(N2CCC(N3CCC(Oc4ccc(C#N)cc4F)C3=O)CC2)n1 (stereo not drawn) [Example 63, 3-Fluoro-4-(1-(1-(3-isopropyl-1,2,4-thiadiazol-5-yl)piperidin-4-yl)-2-oxopyrrolidin-3-yloxy)benzonitrile]",7.4,2.7
"Cc1cc(O[C@H]2CCN(C3CCN(c4nc(C(C)C)ns4)CC3)C2=O)c(F)cc1C#N [Example 64, (S)-5-fluoro-4-(1-(1-(3-isopropyl-1,2,4-thiadiazol-5-yl)piperidin-4-yl)-2-oxopyrrolidin-3-yloxy)-2-methylbenzonitrile]",30.8,3.5
"CC(C)c1nsc(N2CCC(N3CCC(Oc4ccc(S(C)(=O)=O)cc4)C3=O)CC2)n1 (stereo not drawn) [Example 65, -(1-(3-Isopropyl-1,2,4-thiadiazol-5-yl)piperidin-4-yl)-3-(4-(methylsulfonyl)phenoxy)pyrrolidin-2-one]",22.1,4.1
"CCS(=O)(=O)c1ccc(OC2CCN(C3CCN(c4nc(C)ns4)CC3)C2=O)c(F)c1 (stereo not drawn) [Example 66, 3-(4-(ethylsulfonyl)-2-fluorophenoxy)-1-(1-(3-methyl-1,2,4-thiadiazol-5-yl)piperidin-4-yl)pyrrolidin-2-one]",8.6,1.8
"CCS(=O)(=O)c1ccc(OC2CCN(C3CCN(c4nc(-c5ccccc5)ns4)CC3)C2=O)c(F)c1 (stereo not drawn) [Example 67, 3-(4-(ethylsulfonyl)-2-fluorophenoxy)-1-(1-(3-phenyl-1,2,4-thiadiazol-5-yl)piperidin-4-yl)pyrrolidin-2-one]",14.0,2.3
